In patent US20070049569A1, “Methods of using fatty-acid esters of estrogens and thermogenic compounds for reducing the body weight of a mammal and compositions containing the same” (Oleoyl-Estrone Developments SL, priority 2004, published 2007):

How the values were obtained:
[1] = Body weight and lipid changes of overweight male Wistar rats in the 10-day period of treatment; format: in vivo; conditions: 10-day treatment; oleoyl-estrone 10 micromol/kg daily gavage; CL-316243 1 mg/kg daily s.c. infusion
Description: (§1) Forty-five day-old male Wistar rats were used. The rats were kept in collective cages in a light cycle, temperature, and humidity-controlled environment. They were fed tap water and a self-selected cafeteria diet (containing an excess of tasty, energy-dense foods, as well as standard chow) for 45 additional days. Then they were subjected to a 5-day diet adaptation period, in which they had rat chow as the sole food available. At this point, the rats weighed 350-370 g and had significant amounts of body fat. Maintaining the availability of rat chow (daily consumption by the group was recorded) and tap water, body weight was recorded daily. The animals were given a daily gavage of either 0.2 mL of sunflower oil or the same vehicle containing oleoyl-estrone to a daily dose of 10 micromol/kg of body weight.
(§2) This standard feeding and drug administration schedule was complemented by treating one half of the animals receiving only oil and one half of the animals receiving oil and oleoyl-estrone with a daily dose of 1 mg/kg of CL-316243, a beta-3 adrenergic agonist. This drug was continuously administered by means of subcutaneous infusion using Alzet osmotic minipumps (model 2002; 0.5 microliter/h) loaded with drug dissolved in saline. The minipumps were inserted subcutaneously in the dorsal lumbar area of the experimental animals by means of a short cut in the skin. The pumps were tested before their implantation, and the fluid remaining in the minipumps was later measured in order to check the effectiveness of the infusion.
(§3) The treatment was maintained up to 10 days, when the animals were killed by decapitation, and their blood and carcass were used for analyses.
The rat corpses, partially exsanguinated were dissected. The stomach and intestines were cleaned of their contents. The remaining carcass was sealed into polyethylene bags, autoclaved and blended to a fine paste. This paste was analyzed for lipid content by extraction using trichloromethane/methanol and corrected by its water content. Lipid content in the paste was referred to whole in vivo body weight for comparison.
(§4) Samples of the rat paste were dried and used for the estimation of their caloric content using a bomb calorimeter. The initial values for lipid content were calculated from the corresponding in vivo body weights at the beginning of the experiment and applying to all the animals the mean percentage of lipid content found in the control (vehicle only) group at the end of the experiment. This same procedure was used to determine the overall energy content of the carcasses by using the experimentally found energy content of the rats in the control group. Likewise, the energy content of the pellet diet was also measured and used to estimate the energy intake of the animals.

[2] = Energy balance (carcass energy content, energy intake, energy expenditure) of treated male Wistar rats; format: in vivo; conditions: 10-day treatment; for changes in energy expenditure versus control group (in words): estimated as energy intake minus accrual; for loss of body energy: oleoyl-estrone 10 micromol/kg daily gavage, CL-316243 1 mg/kg daily s.c. infusion; for decrease in food consumption: versus control group
Description: as §1, §2, §3, §4
Energy expenditure (Ee) was estimated as the difference between energy intake (Ei) and accrual (Ea), since: Ei=Ee±Ea.

| SMILES | loss of body weight [1] | loss of lipid (lipid stores) [1] | contribution of internal reserves to fuel the energy expenditure [2] | changes in energy expenditure versus control group (in words) [2] | loss of body energy [2] | decrease in food consumption [2] | increase in energy expenditure ([2]; rats treated with the beta-3 agonist, alone or with oleoyl-estrone) |
| --- | --- | --- | --- | --- | --- | --- | --- |
| CCCCCCCC/C=C\CCCCCCCC(=O)Oc1ccc2c(c1)CC[C@@H]1[C@@H]2CC[C@]2(C)C(=O)CC[C@@H]12 [oleoyl-estrone, [3(Z)]-3-[(1-oxo-9-octadecenyl)oxy]-estra-1,3,5(10)-trien-17-one] | about 8% | 13% | 19% | slight decrease | 354 kJ | 32% |  |
| C[C@H](Cc1ccc2c(c1)OC(C(=O)[O-])(C(=O)[O-])O2)NC[C@H](O)c1cccc(Cl)c1.[Na+].[Na+] [beta-3 agonist] | less than 3% | 42% | 28% | higher than that of the control group by more than one-third | 821 kJ | did not show a significant loss of appetite | 136% |
